# Tests used:
# Conditions in all cases: 72 h
# [1] = tested on: Caco-2; test: cell viability relative to DMSO; higher = less toxic
# [2] = tested on: Calu-3; test: as above
# [3] = tested on: U2OS; test: as above
# [4] = tested on: Vero E6; test: as above
# [5] = tested on: Caco-2; test: relative viability EC50 (midpoint between 100% and the lowest measured viability); higher = less toxic
# [6] = tested on: Calu-3; test: as above
# [7] = tested on: U2OS; test: as above
# [8] = tested on: Vero E6; test: as above
# [9] = tested on: Caco-2; test: drug sensitivity score (DSS) for viability; higher = more toxic; extreme values may be limits of the assay
# [10] = tested on: Calu-3; test: as above
# [11] = tested on: U2OS; test: as above
# [12] = tested on: Vero E6; test: as above
Structure (SMILES),cell viability ([1]; 1 nM) [%],cell viability ([1]; 10 nM) [%],cell viability ([1]; 100 nM) [%],cell viability ([1]; 1000 nM) [%],cell viability ([1]; 10000 nM) [%],cell viability ([2]; 1 nM) [%],cell viability ([2]; 10 nM) [%],cell viability ([2]; 100 nM) [%],cell viability ([2]; 1000 nM) [%],cell viability ([2]; 10000 nM) [%],cell viability ([3]; 1 nM) [%],cell viability ([3]; 10 nM) [%],cell viability ([3]; 100 nM) [%],cell viability ([3]; 1000 nM) [%],cell viability ([3]; 10000 nM) [%],cell viability ([4]; 1 nM) [%],cell viability ([4]; 10 nM) [%],cell viability ([4]; 100 nM) [%],cell viability ([4]; 1000 nM) [%],cell viability ([4]; 10000 nM) [%],relative viability EC50 [5] [µM],relative viability EC50 [6] [µM],relative viability EC50 [7] [µM],relative viability EC50 [8] [µM],drug sensitivity score [9],drug sensitivity score [10],drug sensitivity score [11],drug sensitivity score [12]
CN1CCN(C2=Cc3ccccc3Oc3ccc(Cl)cc32)CC1 [2-CMDO],107,90.6,99.7,103,92.3,103,102,98.2,112,95.6,101,98.6,96.7,100,90.1,102,99.5,103,103,93.3,> 10,> 10,> 10,> 10,0,0,0,0
COc1cc2c(cc1OCCCN1CCCC1)N=C(N)C21CCC1 [A-366],91.2,95.4,97.5,104,92,97.3,106,102,103,95.4,103,102,98.9,105,95.2,101,98.1,93.6,94.4,97.8,> 10,> 10,> 10,> 10,0,0,0,0
C[C@H](NC(=O)Cc1cc(F)cc(F)c1)C(=O)N[C@H](C(=O)OC(C)(C)C)c1ccccc1 [DAPT],108,109,116,99.8,96.1,105,100,112,91.1,103,106,106,105,97.7,101,98.3,108,103,105,102,> 10,> 10,> 10,> 10,0,0,0,0
Clc1ccc2c(NCCNc3ccnc4cc(Cl)ccc34)ccnc2c1 [NSC-5844],98.6,102,106,117,76.9,97.8,98.3,103,96.9,96.1,97.3,96.6,100,94.9,96.7,88,95.2,96.2,94.5,101,> 10,> 10,> 10,> 10,0.4,0,0,0
